Like-named read-outs stand apart in the source and are kept apart here.
Key:
MD-PBMCs = assay: IL-1β secretion; type: cell-based, human
monocyte-depleted PBMCs = conditions: MD-PBMCs, ref Brown and Whalen, 2015, cited from earlier work
[1] = system: highly purified human NKs; conditions: NK cells, ref Brown and Whalen, 2015, cited from earlier work

## CC(C)(C)c1ccc(S(=O)(=O)/C=C/C#N)cc1 [BAY 11-7085, reference compound]
MD-PBMCs; donor F244, 24 h, BAY 11-7085 alone (0 DBT)
  Interleukin 1 beta secreted: 836 ± 8 pg/mL
MD-PBMCs; donor F245, 24 h, BAY 11-7085 alone (0 DBT)
  Interleukin 1 beta secreted: 536 ± 51 pg/mL
MD-PBMCs; donor F333, 24 h, BAY 11-7085 alone (0 DBT)
  Interleukin 1 beta secreted: 2039 ± 62 pg/mL
MD-PBMCs; donor F334, 24 h, BAY 11-7085 alone (0 DBT)
  Interleukin 1 beta secreted: 703 ± 70 pg/mL
MD-PBMCs; inhibitor alone
  effect on baseline IL-1β secretion: varying effects

## CC(=O)N[C@@H](Cc1ccc(O)cc1)C(=O)N[C@H](C(=O)N[C@@H](C)C(=O)N[C@@H](CC(=O)O)C(=O)CCl)C(C)C [Caspase-1 Inhibitor II, reference compound]
MD-PBMCs; 50 μM, cells from each donor, p<0.05
  effect on baseline IL-1β production: significantly decreased
MD-PBMCs; donor F240, 24 h, Caspase-1 inhibitor II 50 μM alone (0 DBT)
  Interleukin 1 beta secreted: 237 ± 19 pg/mL
MD-PBMCs; donor F242, 24 h, Caspase-1 inhibitor II 50 μM alone (0 DBT)
  Interleukin 1 beta secreted: 460 ± 15 pg/mL
MD-PBMCs; donor F244, 24 h, Caspase-1 inhibitor II 50 μM alone (0 DBT)
  Interleukin 1 beta secreted: 233 ± 11 pg/mL
MD-PBMCs; donor F245, 24 h, Caspase-1 inhibitor II 50 μM alone (0 DBT)
  Interleukin 1 beta secreted: 150 ± 8 pg/mL
MD-PBMCs; donor F254, 24 h, Caspase-1 inhibitor II 50 μM alone (0 DBT)
  Interleukin 1 beta secreted: 39 ± 4 pg/mL

## Oc1ccc(-c2nc(-c3ccncc3)c(-c3ccc(F)cc3)[nH]2)cc1 [SB202190, reference compound]
MD-PBMCs; 3 of the 4 donors, in 1 donor it greatly increased secretion
  effect on baseline secretion: significantly decreased
MD-PBMCs; donor F247, 24 h, SB202190 alone (0 DBT)
  Interleukin 1 beta secreted: 1613 ± 141 pg/mL
MD-PBMCs; donor F262, 24 h, SB202190 alone (0 DBT)
  Interleukin 1 beta secreted: 149 ± 41 pg/mL
MD-PBMCs; donor F372, 24 h, SB202190 alone (0 DBT)
  Interleukin 1 beta secreted: 36 ± 3 pg/mL
MD-PBMCs; donor F385, 24 h, SB202190 alone (0 DBT)
  Interleukin 1 beta secreted: 357 ± 61 pg/mL

## CCC[CH2][Sn]([CH2]CCC)[CH2]CCC [TBT, tributyltin]
monocyte-depleted PBMCs; donor F142, 24 h, 50 nM TBT
  fold increase in IL-1β secretion: 2.1 fold
monocyte-depleted PBMCs; donor F142, 24 h, 100 nM TBT
  fold increase in IL-1β secretion: 1.8 fold
monocyte-depleted PBMCs; donor F145, 24 h, 50 nM TBT
  fold increase in IL-1β secretion: 1.8 fold
monocyte-depleted PBMCs; donor F145, 24 h, 100 nM TBT
  fold increase in IL-1β secretion: 1.5 fold
monocyte-depleted PBMCs; third common donor (F152), 24 h, 50 nM TBT
  fold increase in IL-1β secretion: 11 fold
[1]; donor KB169, 50 nM TBT
  fold increase in IL-1β secretion: 7.7 fold
[1]; donor KB169, 100 nM TBT
  fold increase in IL-1β secretion: 6.3 fold

## N#CC(=C(/N)Sc1ccccc1N)/C(C#N)=C(/N)Sc1ccccc1N [U0126, reference compound]
MD-PBMCs; donor F240, 24 h, U0126 50 μM alone (0 DBT)
  Interleukin 1 beta secreted: 1756 ± 54 pg/mL
MD-PBMCs; donor F242, 24 h, U0126 50 μM alone (0 DBT)
  Interleukin 1 beta secreted: 479 ± 29 pg/mL
MD-PBMCs; donor F244, 24 h, U0126 50 μM alone (0 DBT)
  Interleukin 1 beta secreted: 119 ± 28 pg/mL
MD-PBMCs; donor F245, 24 h, U0126 50 μM alone (0 DBT)
  Interleukin 1 beta secreted: 255 ± 25 pg/mL
